Experimental data taken from PubChem BioAssay (NCI).
Several values for one entry are separate records, joined by “and”; a condition that tells them apart may be missing. Equal values may be shown once.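 Five compound concentrations were applied to cells in 96-well plates for 48 hours; endpoints were derived by simple linear interpolation of the resulting dose-response curve. Abbreviation: GI50, concentration required for 50% inhibition of growth. TGI is the concentration that stops growth completely.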

Test system: MOLT-4 leukemia
Assay: growth of human tumour cells (NCI), 48 h

Row | SMILES | GI50 [µM] | TGI [µM]
1 | C=CC1CC12C(=O)C1OC2(C)C2C(=O)c3cc4ccccc4cc3C(=O)C12 (stereo not given) | 15.8 | > 100
2 | O=C1c2ccccc2C(=O)C1(Cl)C1(S(=O)(=O)O)c2ccccc2-c2ccccc21 |  | > 100

Test system: NCI-H522 lung
Assay: growth of human tumour cells (NCI), 48 h

Row | SMILES | TGI | GI50
3 | O=[n+]1c2c(n([O-])c3ccccc31)CCCCCCCCCC2 | > 100 µM | 
4 | CNC(=S)N(C)C(=S)Nn1c(=O)c(C)nn(C)c1=S | > 100 µM | 
5 | OCCN1CN(CCO)CN(c2nc(N3CN(CCO)CN(CCO)C3)nc(N3CN(CCO)CN(CCO)C3)n2)C1 | 2.91 ng/mL | 1.04 ng/mL
6 | O=C1CCCC/C(=C/c2ccccc2)N1 | > 100 µM | 
7 | O=C1CN=C(C[N+](=O)[O-])c2ccccc21 | > 100 µM | 
8 | CCCCN(CCCC)CC(C(=O)Nc1ccc([N+](=O)[O-])cc1[N+](=O)[O-])/C(C)=N\NC(=S)NN (stereo not given) | 65.4 µM | 
9 | S=C(N/N=C/c1ccco1)NC12CC3CC(CC(C3)C1)C2 | > 100 µM | 
10 | CS(=O)(=O)N/N=C/CN1C(=O)c2ccccc2C1=O | > 100 µM | 
11 | CC(=O)O.CC(=O)O.CC(=O)O.CC(=O)O.CC(=O)O.CC(=O)O.O.[Ti].[Ti] | > 100 µM | > 100 µM
12 | COc1ccc(OC)c(NC(=O)C(=O)NNC(=O)c2sc(NNC(C)=O)nc2C)c1 | 44.3 µM | 
13 | O=C(Nc1ccc(OS(=O)(=O)c2ccccc2)cc1)C12CC3CC(CC(C3)C1)C2 | > 100 µM | 4.36 µM
14 | O=[N+]([O-])c1nccn1CC(O)c1ccc(F)cc1 (stereo not given) | > 100 µM | 
15 | COC(=O)c1cc2c3ccccc3n(C(C)=O)c2cn1 | > 100 µM | 
16 | O=C1c2ccccc2C2(Br)C(=O)c3ccccc3C12 (stereo not given) | > 100 µM | 
17 | O=S(=O)([O-])c1ccc2c(c1)-c1nc-2nc2[n-]c(nc3nc(nc4[n-]c(n1)c1ccc(S(=O)(=O)[O-])cc41)-c1cc(S(=O)(=O)[O-])ccc1-3)c1ccc(S(=O)(=O)[O-])cc21.[Cu+2].[Na+] | > 100 µM | 44.8 µM
18 | COc1ccc(N(C)c2ncnc3occ(C)c23)cc1 | < 0.01 µM | < 0.01 µM
19 | CCCCOC(=O)C1C(c2ccc(Cl)cc2)NC(c2ccc(Cl)cc2)C(C(=O)OCCCC)S1(=O)=O (stereo not given) | > 100 µM | 
20 | Cc1cc(Br)cc(C)c1NC(=O)C(=O)C(C(=O)c1ccc2ccccc2c1)C1OC(=O)c2ccccc21 (stereo not given) | 22.8 µM | 
21 | CCOC(=O)Oc1c(OC)cc(C(=O)NC2CCc3cc(OC)c(OC)c(OC)c3-c3ccc(SC)c(=O)cc32)cc1OC (stereo not given) | < 0.007 µM | 

Row | SMILES | TGI | GI50
22 | CC(=O)Nc1ccc(C(=O)NN2C(=O)C(Cl)C2c2ccccc2)cc1 (stereo not given) | > 100 µM | 
23 | Cc1ccc(SC(C)/C=C/NNC2=NC(c3ccccc3)C(c3ccccc3)=NN2)cc1 (stereo not given) | 88.9 µM | 
24 | CC(C)(C)[SiH]12(OC(C(F)(F)F)(C(F)(F)F)c3ccccc31)OC(C(F)(F)F)(C(F)(F)F)c1ccccc12 | 17.7 µM | 
25 | CSc1nc2c(nc(C)c(=O)n2C2OCC(OC(C)=O)C(OC(C)=O)C2OC(C)=O)c(=O)[nH]1 (stereo not given) | > 100 µM | 
26 | O=S(O)CCCCSSCC(O)C(O)CSSCCCCS(=O)O (stereo not given) | 20 µM and 30.4 µM | 6.48 µM and 13 µM
27 | O=C1OC(c2ccccc2)=N/C1=C/C=C/c1ccco1 | > 100 µM | 
28 | Clc1ccc2c(NCCCNc3nccc(Nc4ccc(Br)cc4)n3)ccnc2c1 | 3.52 µM | 1.93 µM
29 | Cc1ccccc1N1C(=O)/C(=C/c2ccc(N(CCC#N)CCC#N)cc2)N=C1c1cc([N+](=O)[O-])ccc1Cl | > 100 µM | 
30 | COc1ccc(C2S/C(=C\c3ccccc3O)C(=O)N2NC(=O)Cc2ccccc2)cc1 (stereo not given) | > 100 µM | 
31 | Cc1ccc(S(=O)(=O)NCC2CCCCC2=O)cc1 (stereo not given) | > 100 µM | 
32 | CCC[CH2][Sn]([CH2]CCC)([CH2]CCC)[O]C(=O)CC | 0.299 µM | 0.149 µM
33 | CNC(=S)NC1CCCCC1NC(=S)NC (stereo not given) | > 100 µM | 
34 | CC1OC(n2cc(F)c(=O)[nH]c2=O)C=CC1O (stereo not given) | > 100 µM | 
35 | C=C(C=O)[C@@H]1C2OC(=O)C(=C)[C@@H]2CC(O)[C@@]1(C)CC (stereo not given in full) | 4.52 µM | 
36 | C=C(CCCCC)CN1CCCC1[C@@](C)(O)CC(=O)OCC (stereo not given in full) | > 100 µM | 
37 | NC(=NCCCOc1ccc(Cl)cc1)Nc1ccc(C(F)(F)F)cc1 | 4.41 µM | 1.75 µM
38 | C=CC1CC12C(=O)C1OC2(C)C2C(=O)c3cc4ccccc4cc3C(=O)C12 (stereo not given) | > 100 µM | 29.3 µM
39 | O=C1c2ccccc2C(=O)C1(Cl)C1(S(=O)(=O)O)c2ccccc2-c2ccccc21 | > 100 µM | 

Test system: NCI/ADR-RES ovarian
Assay: growth of human tumour cells (NCI), 48 h

Row | SMILES | TGI | GI50
40 | CCCCCCCCCC/C=C/CC(=O)SCCNC(=O)CCNC(=O)[C@@H](O)C(C)(C)COP(=O)(O)OP(=O)(O)OCC1OC(n2cnc3c(N)ncnc32)C(O)C1OP(=O)(O)O (stereo not given in full) | > 10 µM | 
41 | OCCN1CN(CCO)CN(c2nc(N3CN(CCO)CN(CCO)C3)nc(N3CN(CCO)CN(CCO)C3)n2)C1 | 3.98 ng/mL | 0.867 ng/mL
42 | Ic1ccc(Nc2nc3nonc3nc2Nc2ccc(I)cc2)cc1 | > 100 µM | 0.313 µM
43 | O=C(Nc1ccc(OS(=O)(=O)c2ccccc2)cc1)C12CC3CC(CC(C3)C1)C2 | > 100 µM | 5.75 µM
44 | COc1ccc(N(C)c2ncnc3occ(C)c23)cc1 | > 100 µM | < 0.01 µM
45 | Clc1ccc2c(NCCCNc3nccc(Nc4ccc(Br)cc4)n3)ccnc2c1 | 3.42 µM | 1.79 µM
46 | CCC[CH2][Sn]([CH2]CCC)([CH2]CCC)[O]C(=O)CC | > 100 µM | 0.37 µM
47 | NC(=NCCCOc1ccc(Cl)cc1)Nc1ccc(C(F)(F)F)cc1 | 7.27 µM | 2.35 µM
48 | C=CC1CC12C(=O)C1OC2(C)C2C(=O)c3cc4ccccc4cc3C(=O)C12 (stereo not given) | 95.4 µM | 26.9 µM

Test system: OVCAR-3 ovarian
Assay: growth of human tumour cells (NCI), 48 h

Row | SMILES | TGI | GI50
49 | O=[n+]1c2c(n([O-])c3ccccc31)CCCCCCCCCC2 | > 100 µM | 
50 | CCCCCCCCCC/C=C/CC(=O)SCCNC(=O)CCNC(=O)[C@@H](O)C(C)(C)COP(=O)(O)OP(=O)(O)OCC1OC(n2cnc3c(N)ncnc32)C(O)C1OP(=O)(O)O (stereo not given in full) | > 10 µM | 
51 | OCCN1CN(CCO)CN(c2nc(N3CN(CCO)CN(CCO)C3)nc(N3CN(CCO)CN(CCO)C3)n2)C1 | 6300 ng/mL | 2.2 ng/mL
52 | O=C1CCCC/C(=C/c2ccccc2)N1 | > 100 µM | 
53 | O=C1CN=C(C[N+](=O)[O-])c2ccccc21 | > 100 µM | 
54 | CCCCN(CCCC)CC(C(=O)Nc1ccc([N+](=O)[O-])cc1[N+](=O)[O-])/C(C)=N\NC(=S)NN (stereo not given) | > 100 µM | 
55 | S=C(N/N=C/c1ccco1)NC12CC3CC(CC(C3)C1)C2 | > 100 µM | 
56 | CS(=O)(=O)N/N=C/CN1C(=O)c2ccccc2C1=O | > 100 µM | 
57 | Ic1ccc(Nc2nc3nonc3nc2Nc2ccc(I)cc2)cc1 | > 100 µM | 0.214 µM
58 | CC(=O)O.CC(=O)O.CC(=O)O.CC(=O)O.CC(=O)O.CC(=O)O.O.[Ti].[Ti] | > 100 µM | > 100 µM
59 | COC(=O)C1=C(c2ccc3c(c2)OCO3)O[C@H](c2cc(OC)c(OC)c(OC)c2)[C@H]1COC(C)=O | 8.22 µM | 
60 | COc1ccc(OC)c(NC(=O)C(=O)NNC(=O)c2sc(NNC(C)=O)nc2C)c1 | 66.3 µM | 
61 | O=[N+]([O-])c1nccn1CC(O)c1ccc(F)cc1 (stereo not given) | > 100 µM | 
62 | COc1ccc(NC(=O)CCc2cc(-c3ccc(O)c(OC)c3)nc(NC#N)n2)cc1 | > 100 µM | 
63 | COC(=O)c1cc2c3ccccc3n(C(C)=O)c2cn1 | > 100 µM | 
64 | O=C1c2ccccc2C2(Br)C(=O)c3ccccc3C12 (stereo not given) | > 100 µM | 
65 | O=S(=O)([O-])c1ccc2c(c1)-c1nc-2nc2[n-]c(nc3nc(nc4[n-]c(n1)c1ccc(S(=O)(=O)[O-])cc41)-c1cc(S(=O)(=O)[O-])ccc1-3)c1ccc(S(=O)(=O)[O-])cc21.[Cu+2].[Na+] | > 100 µM | > 28.3 µM
66 | CCCCOC(=O)C1C(c2ccc(Cl)cc2)NC(c2ccc(Cl)cc2)C(C(=O)OCCCC)S1(=O)=O (stereo not given) | > 100 µM | 
67 | Cc1cc(Br)cc(C)c1NC(=O)C(=O)C(C(=O)c1ccc2ccccc2c1)C1OC(=O)c2ccccc21 (stereo not given) | > 64.8 µM | 
68 | CCOC(=O)Oc1c(OC)cc(C(=O)NC2CCc3cc(OC)c(OC)c(OC)c3-c3ccc(SC)c(=O)cc32)cc1OC (stereo not given) |  | < 0.007 µM
69 | CC(=O)Nc1ccc(C(=O)NN2C(=O)C(Cl)C2c2ccccc2)cc1 (stereo not given) | > 100 µM | 
70 | CC(C)(C)OC(=O)NCC(=O)OCc1ccccc1 | > 100 µM | 
71 | Cc1ccc(SC(C)/C=C/NNC2=NC(c3ccccc3)C(c3ccccc3)=NN2)cc1 (stereo not given) | > 100 µM | 
72 | CC(C)(C)[SiH]12(OC(C(F)(F)F)(C(F)(F)F)c3ccccc31)OC(C(F)(F)F)(C(F)(F)F)c1ccccc12 | 16.6 µM | 
73 | CSc1nc2c(nc(C)c(=O)n2C2OCC(OC(C)=O)C(OC(C)=O)C2OC(C)=O)c(=O)[nH]1 (stereo not given) | > 100 µM | 
74 | O=S(O)CCCCSSCC(O)C(O)CSSCCCCS(=O)O (stereo not given) | 23.8 µM and 25.6 µM | 
75 | O=C1OC(c2ccccc2)=N/C1=C/C=C/c1ccco1 | > 100 µM | 
76 | Clc1ccc2c(NCCCNc3nccc(Nc4ccc(Br)cc4)n3)ccnc2c1 | 3.23 µM | 1.75 µM
